How the values were obtained:
Type in all cases: cell-based, human
[1] = test system: primary cells of esophageal squamous carcinoma; assay: Effect of a single factor added to the basic culture medium on proliferation (Example 2); details: Sample 57, 7th day; BM = DMEM/F12 + 10 μM Y27632 + 100 mg/mL Primocin; factor at its No. 7 medium concentration
Procedure: To the basic culture mediums of Example 1 (DMEM/F12 medium+10 μM Y27632+100 mg/mL Primocin) were separatedly added 1:50 ratio of N2 additive, 20 μg/mL insulin, 7 μg/mL bovine pituitary extract, 2 mM glutamine, 400 μM non-essential amino acids, 0.4 μg/mL hydrocortisone, 5 ng/mL insulin-like growth factor 1, respectively, to prepare the culture mediums of this Example. According to the same process as in Example 1, endoscopic tissue Sample 57, Sample 58, Sample 59, Sample 60 and Sample 61 were isolated to obtain primary cells of esophageal squamous carcinoma, and the obtained primary cells of esophageal squamous carcinoma were cultured by using the respective culture mediums prepared in this Example, as well as BM medium and No. 7 medium (EM) of Example 1. The resultants were inoculated into 48-well plate at a living cell density of 1×10^4/cm^2 (10,000 cells per well), and then the plate was added with NIH-3T3 cells that have been irradiated by γ-ray (irradiation dose 35Gy) at a cell density of 2×10^4/cm^2, which were then fully mixed. After surface disinfection, the plate was placed in a 37° C., 5% CO2 incubator (Thermo Fisher) for culture. On the 7th day of culture, the 48-well plate was taken out, rinsed with 200 μL 0.25% trypsin (Gibco) for 1 minute. The liquid was removed by sucking, and 500 μL 0.05% trypsin (Gibco) was added to each well again. The resultant was placed in a 37° C., 5% CO2 incubator to react for 10 minutes, and the digestion can be terminated until it can be observed under the microscope (EVOS […], Invitrogen) that the cells have been completely digested. After being centrifuged at 1500 rpm for 4 minutes, the supernatant was discarded, and 1 mL of basic culture medium was added for resuspension. The total number of cells was obtained by counting with a flow imaging counter (JIMBIO FIL, Jiangsu Jimbio Technology Co., Ltd.). The effect of combination of two factors in the culture medium for primary cells of esophageal squamous carcinoma on the proliferation of primary cells of esophageal squamous carcinoma was evaluated. The results obtained from primary cells of esophageal squamous carcinoma isolated from endoscopic tissue Sample 57 are shown in FIG. 2.

[2] = test system: primary cells of esophageal squamous carcinoma; assay: Effects of concentrations of the added factors or small molecule compounds on proliferation (Example 7); details: for concentration at which the cell proliferation effect is most significant: added to No. 7 medium lacking this factor; for proliferation promoting effect when added to No. 7 medium: 10 μM, 3 μM, 1 μM, 0.3 μM, 0.1 μM, control No. 7 medium
Procedure: According to the same process as in Example 1, endoscopic tissue Sample 65, Sample 66, Sample 67, Sample 68 and Sample 69 were isolated to obtain primary cells of esophageal squamous carcinoma, and the obtained primary cells of esophageal squamous carcinoma were cultured by using No. 7 medium of Example 1. The resultants were inoculated into 12-well plate at a living cell density of 1×10^4/cm^2 (45,000 cells per well), and then the plate was added with NIH-3T3 cells that have been irradiated by γ-ray (irradiation dose 35Gy) at a cell density of 2×10^4/cm^2, which were then fully mixed. After surface disinfection, the plate was placed in a 37° C., 5% CO2 incubator (Thermo Fisher) for culture. When the cells expended to cover 85% of the plate, the 12-well plate was taken out, rinsed with 200 μL 0.25% trypsin (Gibco) for 1 minute. The liquid was removed by sucking, and 500 μL 0.05% trypsin (Gibco) was added to each well again. The resultant was placed in a 37° C., 5% CO2 incubator to react for 10 minutes, and the digestion can be terminated until it can be observed under the microscope (EVOS […], Invitrogen) that the cells have been completely digested. After being centrifuged at 1500 rpm for 4 minutes, the supernatant was discarded, and 1 mL of basic culture medium was added for resuspension. The total number of cells was obtained by counting with a flow imaging counter (JIMBIO FIL, Jiangsu Jimbio Technology Co., Ltd.). The obtained cells were used for the following cultivation experiments. The digested cell suspension was diluted with the above Formulations 1-8 and No. 7 medium in Example 1 respectively, and were seeded into a 24-well plate with 20,000 cells and 500 μL volume per well. When using the medium of Formulation 1, five concentration gradients of N2 additives with the final concentration of 1:400, 1:200, 1:100, 1:50 and 1:25 were prepared, respectively, and the prepared N2 additives were added respectively to a 24-well plate inoculated with primary cells, with 500 μL per well; the medium of Formulation 1 was used as the control hole (BC). When using the medium of Formulation 2, five concentration gradients of non-essential amino acids with the final concentration of 400 μM, 200 μM, 100 μM, 50 μM, 25 μM were prepared, respectively, and the prepared non-essential amino acids were added respectively to a 24-well plate inoculated with primary cells, with 500 μL per well; the medium of Formulation 2 was used as the control hole (BC). When using the medium of Formulation 3, five concentration gradients of glutamine with the final concentration of 8 mM, 4 mM, 2 mM, 1 mM, 0.5 mM were prepared, respectively, and the prepared glutamine were added respectively to a 24-well plate inoculated with primary cells, with 500 μL per well; the medium of Formulation 3 was used as the control hole (BC). When using the medium of Formulation 4, five concentration gradients of insulin with the final concentration of 40 μg/mL, 20 μg/mL, 10 μg/mL, 5 μg/mL, 2.5 μg/mL were prepared, respectively, and the prepared insulin were added respectively to a 24-well plate inoculated with primary cells, with 500 μL per well; the medium of Formulation 4 was used as the control hole (BC). When using the medium of Formulation 5, five concentration gradients of insulin-like growth factor 1 (IGF1) with the final concentration of 40 ng/mL, 20 ng/mL, 10 ng/mL, 5 ng/mL, 2.5 ng/mL were prepared, respectively, and the prepared insulin-like growth factor 1 (IGF1) were added respectively to a 24-well plate inoculated with primary cells, with 500 μL per well; the medium of Formulation 5 was used as the control hole (BC). […]

[3] = test system: primary cells of esophageal squamous carcinoma; assay: Effect of adding other factors to EM medium on proliferation (Example 3); details: Sample 62, 10 ng/ml factor added to No. 7 medium (EM), cultured for 7 days
Procedure: To No. 7 mediums (EM) of Example 1 were separately added 10 ng/ml fibroblast growth factor 2 (FGF2), 10 ng/ml fibroblast growth factor 10 (FGF10), 10 ng/ml fibroblast growth factor 7 (FGF7) or the combination of 10 ng/ml FGF2, 10 ng/ml FGF10 and 10 ng/ml FGF7, respectively, to prepare the mediums of this Example.
According to the same process as in Example 1, endoscopic tissue Sample 62 and Sample 63 were isolated to obtain primary cells of esophageal squamous carcinoma, and the obtained primary cells of esophageal squamous carcinoma were cultured by using the respective culture mediums prepared in this Example, as well as No. 7 medium (EM) of Example 1. The resultants were inoculated into 48-well plate with at a cell density of 1×10^4/cm^2 (10,000 cells per well), and then the plate was added with NIH-3T3 cells that have been irradiated by γ-ray (irradiation dose 35Gy) at a cell density of 2×10^4/cm^2, which were then fully mixed. After surface disinfection, the plate was placed in a 37° C., 5% CO2 incubator (Thermo Fisher) for culture. On the 7th day of culture, the 48-well plate was taken out, rinsed with 200 μL 0.25% trypsin (Gibco) for 1 minute. The liquid was removed by sucking, and 500 μL 0.05% trypsin (Gibco) was added to each well again. The resultant was placed in a 37° C., 5% CO2 incubator to react for 10 minutes, and the digestion can be terminated until it can be observed under the microscope (EVOS M500, Invitrogen) that the cells have been completely digested. After being centrifuged at 1500 rpm for 4 minutes, the supernatant was discarded, and 1 mL of No. 7 medium (EM) was added for resuspension. The total number of cells was obtained by counting with a flow imaging counter (JIMBIO FIL, Jiangsu Jimbio Technology Co., Ltd.). The effect of adding other factors to the culture medium for primary cells of esophageal squamous carcinoma of the invention on the proliferation of primary cells of esophageal squamous carcinoma was evaluated. […]

With NC(=O)CC[C@H](N)C(=O)O [glutamine] the “cell proliferation efficiency when one factor is added to the basic culture medium” value (from here on “cell proliferation efficiency”) [1] was “better than that of the basic culture medium, but was not as good as that of the No. 7 medium (EM)” and the “concentration at which the cell proliferation effect is most significant” value ([2]; tested 0.5-8 mM) was 2 mM.

In the case of Cc1c[nH]c(-c2cnc(NCCNc3ccc(C#N)cn3)nc2-c2ccc(Cl)cc2Cl)n1 [CHIR99021], the “proliferation promoting effect when added to No. 7 medium” value [2] is reported as “do not show significant proliferation promoting effect”.

For Cc1ccc2nc(NC(=O)CSc3nc4c(c(=O)n3-c3ccccc3)SCC4)sc2c1 [IWP2], the “proliferation promoting effect when added to No. 7 medium” value [2] was “do not show significant proliferation promoting effect”.

In the case of C[C@H](NC(=O)Cc1cc(F)cc(F)c1)C(=O)N[C@H](C(=O)OC(C)(C)C)c1ccccc1 [DAPT], the “proliferation promoting effect when added to No. 7 medium” value [2] is reported as “do not show significant proliferation promoting effect”.

For C[C@]12CCC(=O)C=C1CC[C@@H]1[C@@H]2[C@@H](O)C[C@@]2(C)[C@H]1CC[C@]2(O)C(=O)CO [hydrocortisone], the “cell proliferation efficiency” value [1] was “better than that of the basic culture medium, but was not as good as that of the No. 7 medium (EM)” and the “concentration at which the cell proliferation effect is most significant” value ([2]; five concentration gradients) was 400 ng/mL.

With insulin the “cell proliferation efficiency” value [1] was “better than that of the basic culture medium, but was not as good as that of the No. 7 medium (EM)” and the “concentration at which the cell proliferation effect is most significant” value ([2]; five concentration gradients) was 20 ng/mL.

“insulin-like growth factor 1: insulin-like growth factor 1 (IGF-1, Sino Biological)” was tested, and the “cell proliferation efficiency” value [1] was “better than that of the basic culture medium, but was not as good as that of the No. 7 medium (EM)” and the “concentration at which the cell proliferation effect is most significant” value ([2]; five concentration gradients) was 5 ng/mL.

For FGF2: fibroblast growth factor 2, the “effect on proliferation as compared with EM medium (ratio of cell numbers)” value (from here on “effect … (ratio of cell numbers)”) [3] was “no significant effect for promoting proliferation”.

For c1ccc2c(-c3cnn4cc(-c5ccc(N6CCNCC6)cc5)cnc34)ccnc2c1 [LDN193189], the “proliferation promoting effect when added to No. 7 medium” value [2] was “do not show significant proliferation promoting effect”.

In the case of NC(=O)c1ccc(-c2nc(-c3ccc4c(c3)OCO4)c(-c3ccccn3)[nH]2)cc1 [SB431542], the “proliferation promoting effect when added to No. 7 medium” value [2] is reported as “do not show significant proliferation promoting effect”.

With Cc1cccc(-c2nn(C(=S)Nc3ccccc3)cc2-c2ccnc3ccccc23)n1 [A83-01] the “proliferation promoting effect when added to No. 7 medium” value [2] was “do not show significant proliferation promoting effect”.

In the case of CC(C)Oc1ccc(-c2cnc3c(-c4ccnc5ccccc45)cnn3c2)cc1 [DMH-1], the “proliferation promoting effect when added to No. 7 medium” value [2] is reported as “do not show significant proliferation promoting effect”.

With C[C@@H](N)[C@H]1CC[C@H](C(=O)Nc2ccncc2)CC1 [Y27632] the “concentration at which the cell proliferation effect is most significant” value ([2]; five concentration gradients) was 0.01 mM.

B1: FGF7: fibroblast growth factor 7 (protein, UniProt P21781 32-194, looked up)
Fibroblast growth factor 7: CNDMTPEQMATNVNCSSPERHTRSYDYMEGGDIRVRRLFCRTQWYLRIDKRGKVKGTQEMKNNYNIMEIRTVAVGIVAIKGVESEFYLAMNKEGKLYAKKECNEDCNFKELILENHYNTYASAKWTHNGGEMFVALNQKGIPVRGKKTKKEQKTAHFLPMAIT
With B1 the “effect … (ratio of cell numbers)” value [3] was “inhibited”.

B2: FGF10: fibroblast growth factor 10 (protein, UniProt O15520 38-208, looked up)
Fibroblast growth factor 10: QALGQDMVSPEATNSSSSSFSSPSSAGRHVRSYNHLQGDVRWRKLFSFTKYFLKIEKNGKVSGTKKENCPYSILEITSVEIGVVAVKAINSNYYLAMNKKGKLYGSKEFNNDCKLKERIEENGYNTYASFNWQHNGRQMYVALNGKGAPRRGQKTRRKNTSAHFLPMVVHS
With B2 the “effect … (ratio of cell numbers)” value [3] was “no significant effect for promoting proliferation”.

— US20230091960A1, “CULTURE MEDIUM FOR PRIMARY CELLS OF ESOPHAGEAL SQUAMOUS CARCINOMA, AND CULTIVATION METHOD THEREFOR” (PRECEDO PHARMACEUTICALS CO., LTD, priority 2020, published 2023)
